Reference: patent US8614203B2, “Methods for the treatment of a central nervous system injury via a tapered administration protocol” (Emory University, priority 2005, dated 2013)

Columns and labels:
ischemic injury = conditions: following ischemic injury in rats (Jiang et al. 1996); cited from earlier work
[1] = system: medial frontal cortex (MFC) injury or sham; assay: Example 4: somatosensory neglect of the forepaws; type: in vivo, Sprague-Dawley rats
Description: 60 male Sprague-Dawley rats weighing 290-310 g at the time of injury were used in this experiment. Food and water were provided ad libidum before and after surgery. Animals were handled and weighed daily from their arrival, seven days pre-surgery, to brain extraction three weeks post-surgery. Animals were handled in squads of 12, with n=10 per experimental condition. All animal procedures were approved by the Emory University Animal Care and Use Committee, Protocol #131-2002.
Isofluorane anesthesia was induced for four minutes and 45 seconds at 5% and maintained at 2.5%. Normal body temperature was maintained with a surgical heating pad placed beneath the sterile dressings. The scalp incision area was shaved and sterilized with iodine and isopropanol. A midline incision was made along the scalp and the fascia cleared to expose the surface of the skull. Medial, lateral, and dorsal stereotaxic coordinates were determined at bregma, and a 5-7 mm diameter bilateral craniotomy was performed mid-sagitally, 3 mm anterior to bregma. […] Sutures were used to close the incision after bleeding ceased. Animals were placed in individual heated, clean recovery cages until they awakened, and were returned to clean individual home cages with accessible moistened food pellets. Sham animals were anesthetized, and an incision was made at the top of the head. The fascia was cleared to expose bregma, then the incision was sutured closed. Sham surgeries were matched to lesion surgeries for all experimental conditions.
Sham (S) and lesion (L) animals were randomly assigned to one of three treatment groups: vehicle (VS, VL), acute withdrawal (AWS, AWL), and tapered withdrawal (TWS, TWL). […] Tapering was induced as halved dosages over the last two days of treatment. Dilutions for TW treatments were made with HBC stock. All injections were administered intraperitoneally at one hour post-injury, and subcutaneously at six hours post-injury and every 24 hours through the end of the treatment cycle. Five sets of 12 animals each were used, for a total n=10 for each experimental group over the entire experiment. Of these animals, all were used to acquire behavioral data, four samples were used for protein analysis, and six samples were used for histological analysis for each test condition.
Random order, blinded testing occurred under red light in a quiet environment at one and seven days post-withdrawal, one hour after locomoter activity testing. 1.3 cm diameter circular labels were placed on the left forepaw and the rat placed in the clear plexiglass testing box. The latency required for each rat to remove the sticker with its mouth was recorded, with maximum test duration of two minutes. Each animal was tested three times, with a rest period of two minutes between trials. The testing box was cleaned with 70% ethanol and dried between trials.
All results were expressed as the mean plus or minus the standard error of the mean. Statistical significance was set at p<0.05 for two-tailed tests, and data were analyzed using one-way analysis of variance (ANOVA) followed by LSD post hoc tests. F-values are presented as a preface to post-hoc analysis with all degrees of freedom for Western blotting at (5,18) and for behavior at (5,26).

[2] = system: bilateral contusions of the medial prefrontal cortex; assay: Example 1: cell counts of Nissl-stained neurons (STR, GP, DMN, VMN) after TBI; type: in vivo, Sprague-Dawley rats; conditions: 4 mg/kg in peanut oil
Method: (§1) Male Sprague-Dawley rats (300 g) were housed individually in wire cages and kept on a reverse light-dark cycle (0800-2000 h). […] All procedures involving animals conformed to guidelines set forth in the Guide for the Care and Use of Laboratory Animals (U.S. Department of Health and Human Services, Pub no. 85-23, 1985) and were approved by the Emory University Institutional Animal Care and Use Committee.
Bilateral contusions of the medial prefrontal cortex were created by a pneumatic impactor device as previously described. Briefly, rats were given anesthetized with ketamine/xylazine (90 mg/kg; 10 mg/kg) and placed in a stereotaxic apparatus. A craniectomy (diameter 6 mm) was made over the midline of the prefrontal cortex with its center 1.5 mm AP to bregma. After removal of the bone, the tip of the impactor (diameter 5 mm) was moved to +3.0 mm AP; 1.0 mm ML (from bregma), and checked for adequate clearance. Trauma was produced by pneumatically activating the piston to impact −2.0 mm DV (from dura) at a velocity of 3 m/s with a brain contact time of 0.5 seconds. […]
Cell counts were done on an Olympus BH-2 microscope equipped with an eyepiece micrometer grid (sample area=40 um^2 at ×400 magnification). […] Only cells with neuronal nuclei and intact membranes were counted as neurons.
(§2) Experienced individuals who were blind to treatment conditions of the study conducted all histological and behavioral analyses. All data were tested for normality and homoschedasticity before being analyzed by parametric analysis of variance (ANOVA). MWM results were analyzed using separate mixed-factorial (4 groups×5 days) analysis of variance (ANOVA) on each of the two 5-day testing periods (acquisition and retention respectively). Results of the BSN task were analyzed using the mixed-factorial ANOVA (4 groups×2 post-injury trials). […] Pearson r coefficients were calculated to determine whether significant correlations could be detected between histological (e.g., lesion size and cellular density) and behavioral parameters (e.g., acquisition and retention of the MWM task and measures of sensory neglect).

[3] = system: bilateral contusions of the medial prefrontal cortex; assay: Example 1: necrotic cavity, lateral ventricle and striatal area measurements after TBI (Nissl/thionine histology); type: in vivo, Sprague-Dawley rats; conditions: 4 mg/kg in peanut oil, 21 days after surgery
Method: as §1
Bilateral contusions of the medial prefrontal cortex were created by a pneumatic impactor device as previously described. Briefly, rats were given anesthetized with ketamine/xylazine (90 mg/kg; 10 mg/kg) and placed in a stereotaxic apparatus. A craniectomy (diameter 6 mm) was made over the midline of the prefrontal cortex with its center 1.5 mm AP to bregma. After removal of the bone, the tip of the impactor (diameter 5 mm) was moved to +3.0 mm AP; 1.0 mm ML (from bregma), and checked for adequate clearance. Trauma was produced by pneumatically activating the piston to impact −2.0 mm DV (from dura) at a velocity of 3 m/s with a brain contact time of 0.5 seconds.
Control animals received injections of vehicle at similar time-points. Animals were coded with regard to surgery and treatment to prevent experimenter bias during behavioral testing and histological examination.
Twenty-one days after surgery, animals were perfused with 100 ml 0.1 M phosphate-buffered saline (PBS; pH 7.4) followed by 400 ml 4% paraformaldehyde in 0.1 M phosphate buffer (PB; pH 7.4). Following cryoprotection in 30% sucrose, coronal 40-μm-thick sections were cut on a freezing microtome, immediately mounted on gel-coated slides and stained for Nissl with thionine to determine placement and extent of the injury.
Mean area measurements of lesion size were quantified from sections at 15 rostral-caudal levels spaced 300 μm apart. […] Perimeters of the striatum and the lateral ventricles were also traced and mean areas were quantified from 7 rostral-caudal levels (300 μm apart).
as §2

CC(=O)[C@H]1CC[C@H]2[C@@H]3CCC4=CC(=O)CC[C@]4(C)[C@H]3CC[C@]12C [progesterone, pregn-4-ene-3,20-dione]
cell damage and neurological deficit (ischemic injury): reduce cell damage and neurological deficit
somatosensory neglect (latency to remove sticker) ([1]; 16 mg/kg in […] HBC, tapered withdrawal, lesion (TWL), one day and one week post-withdrawal): deficiencies were decreased compared to VL and AWL
somatosensory neglect (latency to remove sticker) ([1]; 16 mg/kg, acute withdrawal, lesion (AWL), one day and one week post-withdrawal): AWL and VL did not display differences
somatosensory neglect (latency to remove sticker) ([1]; 16 mg/kg, acute withdrawal, sham (AWS), one day post-withdrawal): elevated sensory deficiencies compared to the TWS and VS groups
somatosensory neglect (latency to remove sticker) ([1]; 16 mg/kg, acute withdrawal, sham (AWS), one week post-withdrawal): these differences were no longer evident
somatosensory neglect (latency to remove sticker) ([1]; tapered withdrawal, sham (TWS), one day and one week post-withdrawal): TWS and VS showed no differences
injury-induced neuronal loss (mean cellular density STR, GP, DMN, VMN) ([2]; 3 days (LP3)): significant reduction of injury-induced neuronal loss in all brain regions examined
injury-induced neuronal loss (mean cellular density STR, GP, DMN, VMN) ([2]; 5 days (LP5)): significant reduction of injury-induced neuronal loss in all brain regions examined
neuronal loss in the VMN, 5 days vs 3 days of treatment ([2]; 5 days compared with 3 days): more effective than 3 days at attenuating neuronal loss in the VMN
enlargement of the lateral ventricles ([3]; 3 or 5 days): did not have any effect on this measure
mean striatal area ([3]; 3 or 5 days): No between-group differences
necrotic cavity size ([3]; 3 days (LP3), vs injured animals): tended to be smaller than in the brains of injured animals
necrotic cavity formation ([3]; 5 days (LP5), vs vehicle-injected injured animals): significant reductions in overall necrotic cavity formation
